According to PubChem BioAssay AID248 (DTP/NCI, 2004):
Toxic doses and inconclusive results are not listed. No stated cut-off is given here; in the data, active means T/C of 150% or more; inactive means T/C below 125%.

System: L1210 leukemia ip in BDF1 mice, survival T/C
Experiment: NCI In Vivo Anticancer Drug Screen. Data for tumor model L1210 Leukemia (intraperitoneal) in B6D2F1 (BDF1) mice
Settings: endpoint: mean survival time, higher = longer survival
How it was run: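 Transplantable tumor model; survival measured in treated vs vehicle control mice. Value = treated/control.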

[1] = dose: 100.0 mg/kg/injection, schedule: Q01DX009 (ip), vehicle: Klucel (hydroxypropylcellulose) (HPC)
[2] = dose: 100.0 mg/kg/injection, schedule: Q04DX003 (ip), vehicle: Klucel (hydroxypropylcellulose) (HPC)
[3] = dose: 200.0 mg/kg/injection, schedule: Q01DX009 (ip), vehicle: Klucel (hydroxypropylcellulose) (HPC)
[4] = dose: 200.0 mg/kg/injection, schedule: Q04DX003 (ip), vehicle: Klucel (hydroxypropylcellulose) (HPC)
[5] = dose: 400.0 mg/kg/injection, schedule: Q01DX009 (ip), vehicle: Klucel (hydroxypropylcellulose) (HPC)
[6] = dose: 400.0 mg/kg/injection, schedule: Q04DX003 (ip), vehicle: Klucel (hydroxypropylcellulose) (HPC)
[7] = dose: 10.0 mg/kg/injection, schedule: Q04DX003 (ip), vehicle: Klucel (hydroxypropylcellulose) (HPC)
[8] = dose: 100.0 mg/kg/injection, schedule: Q04DX003 (ip), vehicle: saline with Tween-80
[9] = dose: 100.0 mg/kg/injection, schedule: Q01DX001 (ip), vehicle: saline
[10] = dose: 200.0 mg/kg/injection, schedule: Q01DX001 (ip), vehicle: saline
[11] = dose: 400.0 mg/kg/injection, schedule: Q01DX001 (ip), vehicle: saline
[12] = dose: 50.0 mg/kg/injection, schedule: Q01DX009 (ip), vehicle: Klucel (hydroxypropylcellulose) (HPC)
[13] = dose: 50.0 mg/kg/injection, schedule: Q04DX003 (ip), vehicle: Klucel (hydroxypropylcellulose) (HPC)

Measured: T/C

CS1(=O)=CC(=O)CC(c2ccccc2)C1 (stereo not given)
inactive: dose: 100.0 mg/kg/injection, schedule: Q01DX001 (ip), vehicle: Klucel (hydroxypropylcellulose) (HPC) 101 % of control | [1] 107 % of control | [2] 106 % of control | dose: 200.0 mg/kg/injection, schedule: Q01DX001 (ip), vehicle: Klucel (hydroxypropylcellulose) (HPC) 98 % of control | [3] 102 % of control | [4] 104 % of control | dose: 400.0 mg/kg/injection, schedule: Q01DX001 (ip), vehicle: Klucel (hydroxypropylcellulose) (HPC) 98 % of control | [5] 107 % of control | [6] 102 % of control

O=C(O)c1ccccc1C(=O)OC1C=CC2CCC1C2 (stereo not given)
inactive: dose: 100.0 mg/kg/injection, schedule: Q01DX001 (ip), vehicle: carboxymethylcellulose (CMC) 112 % of control | dose: 200.0 mg/kg/injection, schedule: Q01DX001 (ip), vehicle: carboxymethylcellulose (CMC) 90 % of control | dose: 400.0 mg/kg/injection, schedule: Q01DX001 (ip), vehicle: carboxymethylcellulose (CMC) 96 % of control

N#CC(C#N)c1c(F)c(F)c(C(F)(F)F)c(F)c1F
inactive: [7] 103 % of control | dose: 20.0 mg/kg/injection, schedule: Q01DX001 (ip), vehicle: Klucel (hydroxypropylcellulose) (HPC) 97 % of control | dose: 20.0 mg/kg/injection, schedule: Q04DX003 (ip), vehicle: Klucel (hydroxypropylcellulose) (HPC) 98 % of control | dose: 40.0 mg/kg/injection, schedule: Q01DX001 (ip), vehicle: Klucel (hydroxypropylcellulose) (HPC) 101 % of control | dose: 40.0 mg/kg/injection, schedule: Q04DX003 (ip), vehicle: Klucel (hydroxypropylcellulose) (HPC) 95 % of control

CC(=O)C1=C(c2ccccc2)NC(=O)NC1c1ccco1 (stereo not given)
inactive: [8] 94 % of control | dose: 200.0 mg/kg/injection, schedule: Q04DX003 (ip), vehicle: saline with Tween-80 90 % of control | dose: 400.0 mg/kg/injection, schedule: Q04DX003 (ip), vehicle: saline with Tween-80 92 % of control

COc1ccc(CCN=C(C)C2C3CC4CC(C3)CC2C4)cc1OC (stereo not given)
inactive: dose: 100.0 mg/kg/injection, schedule: Q04DX003 (ip), vehicle: saline 90 % of control | dose: 200.0 mg/kg/injection, schedule: Q04DX003 (ip), vehicle: saline 97 % of control | dose: 400.0 mg/kg/injection, schedule: Q04DX003 (ip), vehicle: saline 90 % of control

O=C1C=C(C(=O)O)C(c2ccccc2)CC1 (stereo not given)
inactive: [1] 88 % of control | [2] 100 % of control | [3] 95 % of control | [4] 95 % of control | [5] 98 % of control | [6] 98 % of control

Cc1ccc(S(=O)(=O)N2CC(=O)N(S(=O)(=O)c3ccc(C)cc3)CC2=O)cc1
inactive: dose: 100.0 mg/kg/injection, schedule: Q01DX001 (ip), vehicle: other 106 % of control | dose: 200.0 mg/kg/injection, schedule: Q01DX001 (ip), vehicle: other 103 % of control | dose: 400.0 mg/kg/injection, schedule: Q01DX001 (ip), vehicle: other 106 % of control

COc1ccccc1CN1CCCN(Cc2ccccc2OC)C1c1ccccc1O
inactive: dose: 50.0 mg/kg/injection, schedule: Q01DX001 (ip), vehicle: saline 101 % of control | [9] 103 % of control | [10] 101 % of control | [11] 97 % of control

CC(C)=CCC(=O)OC(Cc1ccccc1)(c1ccccc1)C(C)CN(C)C (stereo not given)
inactive: dose: 25.0 mg/kg/injection, schedule: Q01DX009 (ip), vehicle: saline 101 % of control | dose: 50.0 mg/kg/injection, schedule: Q01DX009 (ip), vehicle: saline 98 % of control | dose: 100.0 mg/kg/injection, schedule: Q01DX009 (ip), vehicle: saline 98 % of control

CC(C(=O)c1ccc(Cl)cc1)C(O)(C(F)(F)F)C(F)(F)F (stereo not given)
inactive: [12] 104 % of control | [1] 104 % of control | [2] 103 % of control | [3] 108 % of control | [4] 101 % of control | [6] 103 % of control

CN1CN(c2ccccc2)CSC1=S
inactive: [12] 102 % of control | [1] 107 % of control | [2] 94 % of control | [3] 95 % of control | [4] 89 % of control

CSc1nc(N(C)C)c2ncn(C3OC(C[N+](=O)[O-])C(OC(C)=O)C(OC(C)=O)C3OC(C)=O)c2n1 (stereo not given)
inactive: dose: 50.0 mg/kg/injection, schedule: Q04DX002 (ip), vehicle: saline 89 % of control | dose: 100.0 mg/kg/injection, schedule: Q04DX002 (ip), vehicle: saline 112 % of control | dose: 200.0 mg/kg/injection, schedule: Q04DX002 (ip), vehicle: saline 94 % of control

O=C1NC(=O)C(c2ccccc2)(C2CC2)N1 (stereo not given)
inactive: [13] 107 % of control | [9] 93 % of control | [2] 95 % of control | [10] 93 % of control | [4] 101 % of control | [11] 98 % of control

CC1CN1CCC(=O)Nc1ccc(Cl)c(Cl)c1 (stereo not given)
inactive: [13] 97 % of control | [2] 105 % of control | [4] 100 % of control | [6] 106 % of control

Cc1ccc(/C([O-])=C(\C(=S)Nc2cccc(Cl)c2)[n+]2ccccc2)cc1
inactive: [1] 104 % of control | [3] 95 % of control | [5] 108 % of control

C=CCOCC(O)CN1CCC(C)CC1 (stereo not given)
inactive: dose: 6.0 mg/kg/injection, schedule: Q04DX003 (ip), vehicle: Klucel (hydroxypropylcellulose) (HPC) 95 % of control | dose: 12.0 mg/kg/injection, schedule: Q04DX003 (ip), vehicle: Klucel (hydroxypropylcellulose) (HPC) 95 % of control | dose: 25.0 mg/kg/injection, schedule: Q04DX003 (ip), vehicle: Klucel (hydroxypropylcellulose) (HPC) 97 % of control | [13] 98 % of control | [2] 95 % of control

COC(=O)C1C2CCC(C2)C1C (stereo not given)
inactive: dose: 25.0 mg/kg/injection, schedule: Q04DX003 (ip), vehicle: saline with Tween-80 101 % of control | dose: 50.0 mg/kg/injection, schedule: Q04DX003 (ip), vehicle: saline with Tween-80 97 % of control | [8] 94 % of control

CC1(C)C2CC3C(C(=O)O)CCCC3(C2)C1Br (stereo not given)
inactive: [1] 103 % of control | [2] 87 % of control | [3] 106 % of control | [4] 90 % of control | [5] 97 % of control | [6] 89 % of control

C/C=C/CS(=O)(=O)Cc1ccccc1
inactive: dose: 100.0 mg/kg/injection, schedule: Q01DX001 (ip), vehicle: saline with Tween-80 103 % of control | dose: 200.0 mg/kg/injection, schedule: Q01DX001 (ip), vehicle: saline with Tween-80 95 % of control | dose: 400.0 mg/kg/injection, schedule: Q01DX001 (ip), vehicle: saline with Tween-80 103 % of control

O=[N+]([O-])c1c(Br)sc(Br)c1[N+](=O)[O-]
inactive: dose: 2.5 mg/kg/injection, schedule: Q01DX009 (ip), vehicle: Klucel (hydroxypropylcellulose) (HPC) 88 % of control | dose: 2.5 mg/kg/injection, schedule: Q04DX003 (ip), vehicle: Klucel (hydroxypropylcellulose) (HPC) 109 % of control | dose: 5.0 mg/kg/injection, schedule: Q01DX009 (ip), vehicle: Klucel (hydroxypropylcellulose) (HPC) 88 % of control | dose: 5.0 mg/kg/injection, schedule: Q04DX003 (ip), vehicle: Klucel (hydroxypropylcellulose) (HPC) 101 % of control | dose: 10.0 mg/kg/injection, schedule: Q01DX009 (ip), vehicle: Klucel (hydroxypropylcellulose) (HPC) 108 % of control | [7] 96 % of control

Oc1ccccc1C=NCCCN=Cc1ccccc1O
inactive: dose: 100.0 mg/kg/injection, schedule: Q01DX009 (ip), vehicle: gum acacia 104 % of control | dose: 100.0 mg/kg/injection, schedule: Q04DX003 (ip), vehicle: gum acacia 98 % of control | dose: 200.0 mg/kg/injection, schedule: Q01DX009 (ip), vehicle: gum acacia 101 % of control | dose: 200.0 mg/kg/injection, schedule: Q04DX003 (ip), vehicle: gum acacia 95 % of control | dose: 400.0 mg/kg/injection, schedule: Q01DX009 (ip), vehicle: gum acacia 101 % of control | dose: 400.0 mg/kg/injection, schedule: Q04DX003 (ip), vehicle: gum acacia 98 % of control
